What is called IC50 is the concentration needed to halve the response being measured. As usually defined, the Ki is the dissociation constant of the complex between target and ligand, obtained from inhibition or displacement.

The text below walks through data of publication PMC4876372 (Scientific Reports, 2016).

Like-named read-outs stand apart in the source and are kept apart here.

In data set [1] the target is T1, His-tagged human recombinant MTH1 protein (Homo sapiens, UniProt P36639).
T1 construct: His; purchased ProSpec
Kind of data set: MTH1 enzyme assay (PPiLight pyrophosphate detection). The class given is biochemical. As to conditions: for IC50: MTH1 2 nM; for Ki: Dixon plot; for manner of MTH1 inhibition: with respect to 8-oxo-dGTP and 2-OH-dATP, Lineweaver-Burk. How it is done:
An MTH1 enzyme assay was performed as described previously with minor modifications. Briefly, test compounds were dissolved in an assay buffer [100 mM Tris-acetate, 40 mM NaCl, 10 mM Mg(OAc)2, 0.005% Tween-20, and 2 mM dithiothreitol (DTT), pH 7.5] containing His-tagged human recombinant MTH1 protein (2 nM; ProSpec). […] Relative MTH1 activity was measured by monitoring the pyrophosphate (PPi) generated through MTH1-catalyzed nucleotide triphosphate hydrolysis. The luciferase-mediated luminescence signal was recorded for 30 min using a luminometer (Molecular Devices).

Data set [2] has as its target T2, His-tagged human recombinant ITPA protein (Homo sapiens, UniProt Q9BY32).
T2 construct: His; purchased ProSpec
Kind of data set: ITPA enzyme assay. The class given is biochemical. The conditions noted are these: at 100 μM. How it is done: (§1) Likewise, the enzymatic activities of ITPA and DCTPP1 were measured using a PPiLight Inorganic Pyrophosphate Assay kit. For the ITPA enzyme assay, we used ITPA assay buffer (100 mM Tris-acetate, 50 mM Mg(OAc)2, 0.005% Tween-20, and 2 mM DTT, pH 7.5), His-tagged human recombinant ITPA protein (5 nM; ProSpec), and ITP (25 μM). For the DCTPP1 enzyme assay, we used DCTPP1 assay buffer (100 mM Tris-acetate, 100 mM NaCl, 10 mM Mg(OAc)2, 0.005% Tween-20, and 2 mM DTT, pH 7.5), His-tagged human recombinant DCTPP1 protein (50 nM; ATGen), and deoxycytidine triphosphate (dCTP; 50 μM).
(§2) To exclude false positive compounds that inhibit PPi detection, the effects of test compounds on 10 μM Na4P2O7-induced luciferase activity were examined.

Data set [3] deals with T3, His-tagged human recombinant DCTPP1 protein (Homo sapiens, UniProt Q9H773).
T3 construct: His; purchased ATGen
T3 sequence (Q9H773 1-170): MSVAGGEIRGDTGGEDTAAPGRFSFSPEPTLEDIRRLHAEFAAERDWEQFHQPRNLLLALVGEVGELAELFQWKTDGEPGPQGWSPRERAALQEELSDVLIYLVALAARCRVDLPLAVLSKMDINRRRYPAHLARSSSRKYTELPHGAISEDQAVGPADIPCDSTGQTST
Description: DCTPP1 enzyme assay. As to conditions: at 100 μM. The class given is biochemical. How it is done: as §1, §2

Data set [4] deals with HeLa cells. Kind of data set: Cell cycle analysis (propidium iodide flow cytometry). The class given is cell-based, human. As to conditions: 24 h, HeLa cells (Ctrl 0.9%). Here is the method: The HeLa cells were seeded in 12-well plates and treated with test compounds for the indicated time. Cells were harvested, washed with PBS, and incubated in propidium iodide (PI) solution containing 50 µg/mL propidium iodide, 0.1% sodium citrate, 0.2% Nonidet P-40, and 0.25 µg/mL RNase A (Nacalai Tesque) for 30 mi n in the dark.
Cellular DNA content was analyzed by fluorescence-activated cell sorting using a Cytomics FC500 (Beckman Coulter). […]
Background: A flow cytometer gives signals particle by particle.

The subject of data set [5] is PANC-1, MIA PaCa-2, A431, Jurkat, MG-63, NIH3T3 and NIH3T3/KRAS cells. The class given is cell-based. As to conditions: 72 or 96 h, WST-8. How it is done: Human cancer cell lines HeLa (cervical cancer), MIA PaCa-2 (pancreatic cancer), A431 (epidermoid carcinoma), and human embryonic kidney derived cell line HEK293T were cultured in Dulbecco’s Modified Eagle’s Medium (DMEM; Invitrogen) containing 10% fetal bovine serum (FBS), penicillin G (50 units/mL) and streptomycin (50 µg/mL). Human cancer cell lines Panc-1 (pancreatic cancer) and Jurkat (T cell lymphoma) were cultured in RPMI (Gibco) containing 10% FBS, penicillin G (50 units/mL) and streptomycin (50 µg/mL). Human osteosarcoma cell line MG-63, mouse embryonic fibroblast NIH3T3 cells and its transformant NIH3T3/KRAS cells1 were cultured in DMEM (Sigma-Aldrich) containing 10% calf serum, glutamine (0.3 g/L), penicillin G (50 units/mL), and streptomycin (50 µg/mL). All cell lines were incubated at 37 °C in a humidified atmosphere containing 5% CO2.
The cells were seeded in 96-well plates, cultured overnight, and treated with test compounds for the indicated time. Subsequently, cell viability was measured by the WST-8 assay, using Cell Count Reagent SF (Nacalai Tesque) according to the manufacturer ’s instructions, with the measurement of absorbance set at 450 nm on the ARVO SX 1420 Multilabel Counter (Wallac). […]
For orientation: Formazan colour is commonly taken as a measure of viable cells.

Where [6] appears, read: substrate 2-OH-dATP (8.3 μM), read-out: IC50 of MTH1 inhibitory activity, 2-OH-dATP.
Setting [7] is: substrate 2-OH-dATP, read-out: Ki for 2-OH-dATP.
Setting [8] is: substrate 8-oxo-dGTP, read-out: Ki for 8-oxo-dGTP.

For `CC1(C)CC2CC(C)(CN2c2ncnc3[nH]cnc23)C1` (stereo not shown) [NPD7155], the concentration for half-maximal inhibition (IC50) in data set [1] (setting [6]) is 380 ± 160 nM. Also, the Ki in data set [1] (setting [7]) is 180 ± 30 nM; in data set [1] (setting [8]), 100 ± 40 nM. Besides, the “manner of MTH1 inhibition” value in data set [1] was “competitive”. In addition, the “effect on enzymatic activity of ITPA” value in data set [2] is recorded as “did not affect”. For the same compound, the “effect on enzymatic activity of DCTPP1” value in data set [3] was “did not affect”. Moreover, the results for the sub-G1 cell population in data set [4] (100 μM) and in data set [4] (200 μM) were 4.9% and 9.0%, respectively. For the same compound, the “cytotoxicity against cancer cell lines and KRAS-transformed fibroblast cells” value in data set [5] is “less potent cytotoxicity”.

With `Nc1nc(NCCc2ccccc2)c2nc[nH]c2n1` [NPD9948], the IC50 in data set [1] (setting [6]) is 500 ± 210 nM; in data set [1] (substrate 8-oxo-dGTP (13.2 μM), read-out: IC50 of MTH1 inhibitory activity, 8-oxo-dGTP), 290 ± 50 nM. In addition, the Ki was 220 ± 40 nM in data set [1] (setting [7]) and 130 ± 50 nM in data set [1] (setting [8]). Moreover, the “manner of MTH1 inhibition” value in data set [1] is given as “competitive”. Also, the “effect on enzymatic activity of ITPA” value in data set [2] is given as “did not affect”. Besides, the “effect on enzymatic activity of DCTPP1” value in data set [3] is “did not affect”. Besides, the sub-G1 cell population came to 8.2% in data set [4] (100 μM) and 19% in data set [4] (200 μM). In addition, the “cytotoxicity against cancer cell lines and KRAS-transformed fibroblast cells” value in data set [5] was “less potent cytotoxicity”.
